Assay results as given in ChEMBL document CHEMBL4385604, “Identification of Pyrrolo[2,3- d]pyrimidine-Based Derivatives as Potent and Orally Effective Fms-like Tyrosine Receptor Kinase 3 (FLT3) Inhibitors for Treating Acute Myelogenous Leukemia” (J Med Chem, 2019).

How the values were obtained:
BaF3 [1] = test: cells; details: Mus musculus, BaF3, 72 h
Description: Antiproliferative activity against mouse BAF3 cells harboring FLT3-ITD-F691L mutant measured after 72 hrs by MTT assay

BaF3 [2] = test: cells; details: Mus musculus, BaF3, 72 h; remark: listed apart in the source
Description: Antiproliferative activity against mouse BAF3 cells harboring FLT3-ITD-D835V mutant measured after 72 hrs by MTT assay

[3] = target: T1, Receptor-type tyrosine-protein kinase FLT3 (Homo sapiens, UniProt P36888)
T1 sequence (P36888 whole entry): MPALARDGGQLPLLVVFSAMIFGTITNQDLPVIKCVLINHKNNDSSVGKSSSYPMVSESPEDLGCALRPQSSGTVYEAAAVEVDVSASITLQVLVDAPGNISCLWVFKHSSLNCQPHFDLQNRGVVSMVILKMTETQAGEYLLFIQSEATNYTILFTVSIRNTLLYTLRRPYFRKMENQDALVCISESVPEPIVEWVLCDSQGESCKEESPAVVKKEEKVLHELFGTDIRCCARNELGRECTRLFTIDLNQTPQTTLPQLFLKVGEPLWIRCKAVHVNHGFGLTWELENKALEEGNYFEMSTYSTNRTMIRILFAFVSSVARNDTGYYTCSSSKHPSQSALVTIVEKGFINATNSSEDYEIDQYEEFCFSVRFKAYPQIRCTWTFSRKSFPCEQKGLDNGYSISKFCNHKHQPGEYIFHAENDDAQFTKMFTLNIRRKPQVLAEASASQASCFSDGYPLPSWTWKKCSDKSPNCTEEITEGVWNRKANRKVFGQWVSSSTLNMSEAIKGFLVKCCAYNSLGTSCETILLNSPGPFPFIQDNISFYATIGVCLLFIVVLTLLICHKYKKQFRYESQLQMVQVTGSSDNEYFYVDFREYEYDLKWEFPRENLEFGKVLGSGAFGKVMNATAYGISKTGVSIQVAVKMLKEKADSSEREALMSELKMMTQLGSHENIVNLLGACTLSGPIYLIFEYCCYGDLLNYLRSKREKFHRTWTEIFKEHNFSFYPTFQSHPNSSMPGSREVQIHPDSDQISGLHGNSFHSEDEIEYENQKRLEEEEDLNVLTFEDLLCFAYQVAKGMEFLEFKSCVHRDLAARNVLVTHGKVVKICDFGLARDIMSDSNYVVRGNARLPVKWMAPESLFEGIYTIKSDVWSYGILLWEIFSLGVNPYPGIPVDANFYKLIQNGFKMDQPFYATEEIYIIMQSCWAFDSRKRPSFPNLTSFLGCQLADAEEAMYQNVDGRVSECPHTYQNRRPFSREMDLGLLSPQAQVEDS

MOLM-13 = test: cells; details: Homo sapiens, MOLM-13, 72 h
Description: Antiproliferative activity against human MOLM13 cells harboring FLT3-ITD mutant measured after 72 hrs by MTT assay

BaF3 [4] = test: cells; details: Mus musculus, BaF3, 72 h; remark: listed apart in the source
Description: Antiproliferative activity against mouse BAF3 cells harboring FLT3-ITD mutant measured after 72 hrs by MTT assay

RS4-11 = test: Antiproliferative activity against human RS4:11 cells harboring wild-type FLT3 measured after 72 hrs by MTT assay; assay type: functional, cell-based; details: RS4-11, 72 h
MV4-11 = test: cells; details: Homo sapiens, MV4-11, 72 h
Description: Antiproliferative activity against human MV4-11 cells harboring FLT3-ITD mutant measured after 72 hrs by MTT assay

HL-60 = test: Antiproliferative activity against human HL60 cells harboring wild-type FLT3 measured after 72 hrs by MTT assay; assay type: functional, cell-based; details: HL-60, 72 h

SMILES	IC50 (BaF3 [1]) [nM]	IC50 (BaF3 [2]) [nM]	IC50 [3] [nM]	IC50 (MOLM-13) [nM]	IC50 (BaF3 [4]) [nM]	IC50 (RS4-11) [nM]	IC50 (MV4-11) [nM]	IC50 (HL-60) [nM]
C=CCCCCn1cc(-c2ccc(NC(=O)Nc3cc(C(C)(C)C)on3)cc2)c2c(N)ncnc21	228	185	70	2.85	6.06	> 1000	1.79	> 1000
CC(C)(C)c1cc(NC(=O)Nc2ccc(-c3cn(C4CCCC4)c4ncnc(N)c34)cc2)no1	90.9	36.8	32	1.51	7.25	> 1000	2.16	> 1000
C=CCCn1cc(-c2ccc(NC(=O)Nc3cc(C(C)(C)C)on3)cc2)c2c(N)ncnc21	91.8	176	38	1.06	4.92	> 1000	1.75	> 1000
C=CCCCn1cc(-c2ccc(NC(=O)Nc3cc(C(C)(C)C)on3)cc2)c2c(N)ncnc21	200	140	69	2.22	5.95	> 1000	2.94	> 1000
CCCn1cc(-c2ccc(NC(=O)Nc3cc(C(C)(C)C)on3)cc2)c2c(N)ncnc21	72.1	41.5	15	0.736	2.72	> 1000	0.403	> 1000
CCOCCn1cc(-c2ccc(NC(=O)Nc3cc(C(C)(C)C)on3)cc2)c2c(N)ncnc21	98.6	173	37	0.117	3.21	> 1000	1.47	> 1000
CC(C)=CCn1cc(-c2ccc(NC(=O)Nc3cc(C(C)(C)C)on3)cc2)c2c(N)ncnc21	216	305	113	2.77	8.67	> 1000	10.3	> 1000
CCCCCCn1cc(-c2ccc(NC(=O)Nc3cc(C(C)(C)C)on3)cc2)c2c(N)ncnc21	253	187	105	3.77	20.7	> 1000	5.13	> 1000
CC(C)(C)OC(=O)n1cc(-c2ccc(NC(=O)Nc3cc(C(C)(C)C)on3)cc2)c2c(N)ncnc21	8.92	12.4	25	0.081	1.28	> 1000	0.107	> 1000
CC(C)(C)OC(=O)N1CCN(CCn2cc(-c3ccc(NC(=O)Nc4cc(C(C)(C)C)on4)cc3)c3c(N)ncnc32)CC1	> 500	385	–	4.43	8.95	> 1000	2.54	> 1000
CN(C)CCn1cc(-c2ccc(NC(=O)Nc3cc(C(C)(C)C)on3)cc2)c2c(N)ncnc21	85	170	17	0.134	1.62	> 1000	0.152	> 1000
CCC#CCn1cc(-c2ccc(NC(=O)Nc3cc(C(C)(C)C)on3)cc2)c2c(N)ncnc21	148	361	64	2.05	8.65	> 1000	5.84	> 1000
Cn1cc(-c2ccc(NC(=O)Nc3cc(C(C)(C)C)on3)cc2)c2c(N)ncnc21	27.9	46.2	7	0.014	1.44	> 1000	0.311	> 1000
C=CCn1cc(-c2ccc(NC(=O)Nc3cc(C(C)(C)C)on3)c(F)c2)c2c(N)ncnc21	82.4	51.9	17	0.65	3.04	> 1000	2.34	> 1000
CCn1cc(-c2ccc(NC(=O)Nc3cc(C(C)(C)C)on3)cc2)c2c(N)ncnc21	28.5	23.1	7	0.144	0.92	> 1000	0.476	> 1000
CC(C)(C)c1cc(NC(=O)Nc2ccc(-c3cn(CCN4CCNCC4)c4ncnc(N)c34)cc2)no1	> 200	156	9	2.56	8.67	> 1000	1.75	> 1000
CC(C)(C)c1cc(NC(=O)Nc2ccc(-c3cn(CCC#N)c4ncnc(N)c34)cc2)no1	19.6	24.6	6	0.52	1.6	> 1000	0.376	> 1000
C=C(C)Cn1cc(-c2ccc(NC(=O)Nc3cc(C(C)(C)C)on3)cc2)c2c(N)ncnc21	57.8	93.7	30	1.02	5.09	> 1000	1.75	> 1000
CCCCn1cc(-c2ccc(NC(=O)Nc3cc(C(C)(C)C)on3)cc2)c2c(N)ncnc21	209	112	34	1.43	5.69	> 1000	2.18	> 1000
CCN(CC)C(=O)n1cc(-c2ccc(NC(=O)Nc3cc(C(C)(C)C)on3)cc2)c2c(N)ncnc21	28.2	28.5	31	1.95	3.1	> 1000	1.73	> 1000
CCOCCn1cc(-c2ccc(NC(=O)Nc3cc(C(C)(C)C)on3)c(F)c2)c2c(N)ncnc21	42.7	55.4	49	1.55	4.6	> 1000	1.34	> 1000
CC(C)(C)c1cc(NC(=O)Nc2ccc(-c3cn(CC#N)c4ncnc(N)c34)cc2F)no1	9.84	86.7	19	0.73	1.27	> 1000	0.422	> 1000
COCCn1cc(-c2ccc(NC(=O)Nc3cc(C(C)(C)C)on3)c(F)c2)c2c(N)ncnc21	39.4	69.7	32	0.58	5.57	> 1000	1.98	> 1000
C=CCCn1cc(-c2ccc(NC(=O)Nc3cc(C(C)(C)C)on3)c(F)c2)c2c(N)ncnc21	50.2	84.4	51	1.45	5.41	> 1000	3.22	> 1000
CC(C)(C)c1cc(NC(=O)Nc2ccc(-c3cn(CCN4CCN(S(C)(=O)=O)CC4)c4ncnc(N)c34)cc2)no1	86	166	26	10.6	3.59	> 1000	14.2	> 1000
